One data set has as its system taste of SD rats. As to the kind of experiment: Rat taste test (quinine water / tap water drinking). The class given is in vivo. The method, then: Experimental purpose: to observe an effect of title compounds on taste of SD rats.
• 1.1) Animals and grouping: 40 male SD rats, with about 300 grams per rat. […] A bottle of normal drinking water and a bottle of drinking water containing 0.3 mM quinine hydrochloride were placed in each cage at the same time, and left and right positions where the two bottles of water were placed in all animal feeding cages were the same. After the animals were allowed to freely drink water for 15 minutes, drinking amounts of the two bottles of water were measured respectively to the nearest 0.1 mL. • 1.5) Data statistics: drinking amounts of quinine bitter water and tap water and a total water drinking amount thereof as well as a percentage of quinine water in the total water drinking amount were counted respectively. Water drinking amounts of the bitter water of animals in each group were compared. Whether differences between groups were significant was compared by analysis of variance. 2) Experimental Results

For the next data set, the system named is chronic cough. The following applies: literature, cited from earlier work.
Another data set concerns the target T1, rP2X3 (Rattus norvegicus, UniProt P49654).
T1 construct: expressed in transfected cells; host or cells: HEK293
T1 sequence (P49654 1-397): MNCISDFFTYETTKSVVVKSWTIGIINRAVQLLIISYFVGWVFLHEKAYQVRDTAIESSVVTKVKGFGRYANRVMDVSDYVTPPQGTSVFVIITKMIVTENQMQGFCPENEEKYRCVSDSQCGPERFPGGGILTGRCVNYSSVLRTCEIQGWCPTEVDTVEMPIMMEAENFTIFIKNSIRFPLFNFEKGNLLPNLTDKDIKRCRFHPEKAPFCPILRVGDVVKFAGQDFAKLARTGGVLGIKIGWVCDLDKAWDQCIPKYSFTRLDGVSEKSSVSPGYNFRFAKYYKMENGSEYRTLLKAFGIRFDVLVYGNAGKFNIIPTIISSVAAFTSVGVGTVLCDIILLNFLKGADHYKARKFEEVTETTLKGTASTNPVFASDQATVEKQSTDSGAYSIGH
As to the kind of experiment: Inhibitory activity against P2X3 in rats (electrophysiological method). The class given is cell-based.

A further data set deals with T2, gpP2X3 (Cavia porcellus, UniProt H0VWY5).
T2 sequence (H0VWY5 1-391): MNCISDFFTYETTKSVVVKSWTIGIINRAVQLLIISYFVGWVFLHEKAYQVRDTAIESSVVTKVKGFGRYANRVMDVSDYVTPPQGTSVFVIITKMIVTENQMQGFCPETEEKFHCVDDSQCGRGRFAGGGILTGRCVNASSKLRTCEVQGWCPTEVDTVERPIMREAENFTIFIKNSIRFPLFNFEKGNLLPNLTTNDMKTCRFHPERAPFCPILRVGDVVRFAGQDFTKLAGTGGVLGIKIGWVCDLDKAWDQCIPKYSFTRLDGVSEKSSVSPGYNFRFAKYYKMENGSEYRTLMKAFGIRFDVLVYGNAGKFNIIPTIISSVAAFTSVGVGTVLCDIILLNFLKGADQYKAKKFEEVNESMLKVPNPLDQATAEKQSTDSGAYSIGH
As to the kind of experiment: Inhibitory activity against P2X3 in guinea pigs (electrophysiological method). The class given is cell-based. The following applies: guinea pig P2X3, electrophysiological method.

The target in the next data set is T3, human P2X2/3 (Homo sapiens, UniProt P56373+Q9UBL9).
T3 construct: expressed in transfected cells; host or cells: HEK293
T3 sequence (P56373 1-397): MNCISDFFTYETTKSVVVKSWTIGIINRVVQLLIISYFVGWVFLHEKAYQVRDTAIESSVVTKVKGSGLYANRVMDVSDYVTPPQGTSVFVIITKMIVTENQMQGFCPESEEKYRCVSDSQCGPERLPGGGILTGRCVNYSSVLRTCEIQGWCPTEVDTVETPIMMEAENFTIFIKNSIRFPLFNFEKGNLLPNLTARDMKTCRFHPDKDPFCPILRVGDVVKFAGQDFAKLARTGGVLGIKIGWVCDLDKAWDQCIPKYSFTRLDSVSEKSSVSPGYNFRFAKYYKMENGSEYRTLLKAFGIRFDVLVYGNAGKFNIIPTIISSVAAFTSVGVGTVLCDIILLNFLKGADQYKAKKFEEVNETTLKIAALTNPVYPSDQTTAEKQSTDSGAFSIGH
T3 sequence (Q9UBL9 1-471): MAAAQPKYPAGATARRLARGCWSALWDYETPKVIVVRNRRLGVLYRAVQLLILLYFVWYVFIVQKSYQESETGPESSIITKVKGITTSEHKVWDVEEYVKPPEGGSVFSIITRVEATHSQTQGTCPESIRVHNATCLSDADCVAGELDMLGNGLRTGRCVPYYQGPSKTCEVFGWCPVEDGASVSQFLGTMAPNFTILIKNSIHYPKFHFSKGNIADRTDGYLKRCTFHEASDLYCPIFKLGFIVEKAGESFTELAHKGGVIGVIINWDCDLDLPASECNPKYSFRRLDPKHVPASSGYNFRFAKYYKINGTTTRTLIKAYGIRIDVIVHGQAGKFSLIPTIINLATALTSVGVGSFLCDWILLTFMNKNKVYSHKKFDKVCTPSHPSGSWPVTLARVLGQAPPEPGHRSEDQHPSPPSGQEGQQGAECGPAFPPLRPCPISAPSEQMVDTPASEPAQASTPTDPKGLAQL
Briefly: Inhibitory activity against human P2X2/3 (electrophysiological method). The class given is cell-based. The note with it: read-out: hP2X2/3 (IC50).

Another data set concerns the target T4, human P2X4 (Homo sapiens, UniProt Q99571).
T4 construct: expressed in transfected cells; host or cells: HEK293
T4 sequence (Q99571 1-388): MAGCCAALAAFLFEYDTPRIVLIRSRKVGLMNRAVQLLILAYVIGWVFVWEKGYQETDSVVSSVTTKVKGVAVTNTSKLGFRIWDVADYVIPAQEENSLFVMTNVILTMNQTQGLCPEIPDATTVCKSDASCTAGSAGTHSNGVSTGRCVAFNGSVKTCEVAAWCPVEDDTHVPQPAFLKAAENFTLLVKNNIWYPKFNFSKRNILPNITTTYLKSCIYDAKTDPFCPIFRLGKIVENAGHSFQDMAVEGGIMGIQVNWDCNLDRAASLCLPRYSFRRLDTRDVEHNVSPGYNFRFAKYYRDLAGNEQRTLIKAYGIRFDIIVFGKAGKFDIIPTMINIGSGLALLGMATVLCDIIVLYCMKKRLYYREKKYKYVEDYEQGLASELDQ
As to the kind of experiment: Inhibitory activity against human P2X4 (electrophysiological method). The following applies: read-out: hP2X4 (IC50). The class given is cell-based.

In another data set the target is T5, human PAR-1 (Homo sapiens, UniProt P25116).
T5 construct: host or cells: HEK293/Ga15 recombinant cell line
T5 sequence (P25116 22-425): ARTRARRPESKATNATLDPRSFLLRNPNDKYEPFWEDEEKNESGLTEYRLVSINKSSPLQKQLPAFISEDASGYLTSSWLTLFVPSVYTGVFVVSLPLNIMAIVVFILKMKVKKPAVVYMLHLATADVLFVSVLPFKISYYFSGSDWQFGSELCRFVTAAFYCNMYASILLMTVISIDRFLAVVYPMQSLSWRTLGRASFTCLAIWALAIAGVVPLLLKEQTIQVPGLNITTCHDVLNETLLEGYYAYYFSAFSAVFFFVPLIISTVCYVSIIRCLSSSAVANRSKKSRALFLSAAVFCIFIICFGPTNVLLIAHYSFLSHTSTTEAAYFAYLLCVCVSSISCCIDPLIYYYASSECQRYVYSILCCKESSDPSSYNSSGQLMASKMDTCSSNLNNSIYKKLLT
As to the kind of experiment: Inhibitory activity against PAR-1, calcium ion flux fluorescence method (FLIPR). The class given is cell-based. The following applies: HEK293/Ga15 cells expressing human PAR-1, TFLLR-NH2 10 μM, starting concentration 30 μM. As for the experimental part: The inhibitory activity of the title compounds against human PAR-1 was determined by a calcium ion flux fluorescence method (an FLIPR method). The method thereof was reported in the literature of Zhong et al. [Zhong et al. J Biomol Struct Dyn, 2017, 35(13):2853].
An HEK293/Ga15 recombinant cell line (HD Biosciences, Shanghai, China) stably expressing human PAR-1 was cultured in a DMEM (Thermo Fisher Scientific, Shanghai) culture solution (containing 10% calf serum, 800 μg/mL G418). Incubator conditions were 37° C. and an air humidity with 5% CO2.
On the first day, 20 μL per well of PAR-1 cells at a concentration of 4E+5 cells/mL were seeded in a 384-well analysis plate (Corning 3712). […] On the second day, a culture solution in each well was poured off. Then, 20 μL of 1×loading dye (2 μM Fluo-8 AM in 1×HBSS with 20 mM HEPES, 1 mM Probenecid, 0.025% Pluronic F-127 assay buffer) was added in each well. The cell analysis plate was cultured for 1 hour at a room temperature.
The compounds were dissolved into 100% DMSO to prepare a 10 mM stock solution, which was stored at −20° C. On the day of use, the compound stock solution was thawed at a room temperature. Each compound was subjected to 1:3 serial dilution at 11 concentration points with a DMEM culture solution with a starting concentration of 30 μM. Each compound was subjected to double dilution for testing. A positive control compound was diluted in the same way with SCH79797 with a starting concentration of 30 μM.
The cell analysis plate was placed in a FLIPR instrument (Molecular Device) and 10 μL of compounds (3× of a final concentration) in a compound plate was added to corresponding wells of the cell analysis plate. After 10 minutes, 10 μL of TFLLR-NH2 (TFA) (a final concentration of 10 μM) was added to each well to stimulate generation of intracellular calcium flux signals. Ca^++-dependent fluorescence signals were continuously monitored at excitation wavelengths of 470/495 nm and emission wavelengths of 515/575 nm to analyze the inhibitory activity of the compounds.
Data were collected and analyzed by using an FLIPR program. The inhibitory (or agonistic) activity of the compounds at each concentration was assessed by fluorescence peaks. IC50 values of the compounds were calculated by using EXCEL and PRISM programs.

In data set [1] the target is T6, human P2X3 (Homo sapiens, UniProt P56373).
T6 sequence (P56373 1-397): T3 sequence (P56373 1-397)
As to the kind of experiment: cell-based.
Procedure: (§1) An HEK293 cell line was used as cells. HEK293 cells were placed in a 37° C. incubator with 5% CO2 for culture. Passage was conducted when the cells grew to a density of 80% to 90%. A culture medium in an original 60 mm culture dish was discarded. After the cells were washed 3 times with a sterilized PBS solution, and the solution was blotted up. […] After the trypsin was blotted up, 3 mL of a cell culture medium was added to resuspend the cells. 0.5 mL of a resuspension solution was taken to be added into a new culture dish, and an total culture solution was supplemented to 5 mL. The culture dish was gently shaken to distribute the cells evenly, and then placed in a 37° C. incubator with 5% CO2 for culture.
(§2) First, treated slides were spread in a small 35 mm culture dish. 100 μL of resuspended cells were added, and then a total amount of a culture medium was supplemented to 2 mL. Target genes were transferred into the HEK293 cell line by adopting a calcium transfection method. Small dishes to be transfected were subjected to medium change 1 hour before transfection. 2 mL of a fresh cell culture solution was added. A 1.5 mL EP tube was taken, 200 μL of a 0.25 M CaCl2) solution was added, and 3 μg of plasmids to be transfected were added, and even mixing was conducted to form a DNA-CaCl2 solution. […] A pipette tip was used for mixing while adding. After adding all, gentle blowing and beating were conducted 8 to 10 times. After still standing for 5 minutes, they were added into small dishes. The small dishes were shaken slightly to mix the solution evenly, and the placed in a cell incubator. Culture mediums were replaced after 8 to 10 hours. Electrophysiological experiments were performed 24 to 48 hours after transfection.
(§3) Electrophysiological recording electrodes were obtained by two-step pulling by using an electrode puller (PP-10, Narishige). After an internal solution is injected into the electrodes, a water inlet resistance is 3 to 5 MΩ. During the experiment, a high potassium salt internal solution containing nystatin (K2SO4 of 75 mM, KCl of 120 mM, MgSO4 of 5 mM, HEPES of 10 mM, adjusting pH to 7.2 with Tris-base, and used after filtration) was used as an electrode internal solution. After the cells were sealed by the electrodes, there was no need to further break cell membranes in a sucked manner, but the cell membranes were bored through the perforation of the nystatin to the cell membranes, to form a hole channel. […] A clamping voltage was −60 mV, a sampling frequency was 10 kHz, and filtering was conducted at 2 kHz.
(§4) A working concentration of a P2X3 receptor agonist ATP was 1 μM, and an interval time between two times of ATP administrations was 10 minutes.

In data set [2] the target is T6, human P2X3. Briefly: Inhibitory activity against human P2X3, perforated patch clamp (electrophysiological method). The following applies: read-out: hP2X3 (IC50), transfected HEK293 cells, agonist ATP 1 μM, compounds pre-administered for 2 minutes. On the technique in general: Patch clamp records ionic current or voltage across a cell membrane.
Procedure: as §1, §2, §3, §4

Bounds are passed on as bounds.

With `COc1cc(C(C)C)c(Oc2cnc(N)nc2N)cc1S(N)(=O)=O` [AF-219, reference compound], the “Water drinking amount, Tap water” value in the data set with taste of SD rats (10 mg/kg intraperitoneal injection, free drinking 15 minutes, amounts measured to the nearest 0.1 mL) is given as 8.69. Further, the “Water drinking amount, Sum” value in the data set on taste of SD rats (10 mg/kg intraperitoneal injection, tap plus quinine water, 15 minutes, measured to the nearest 0.1 mL) was found to be 14.02. In addition, in the data set on taste of SD rats (10 mg/kg intraperitoneal injection, water with 0.3 mM quinine hydrochloride, 15 minutes, measured to the nearest 0.1 mL), the “Water drinking amount, Quinine” value is listed as 5.33. The “drinking amount of bitter water compared with solvent control group” value with taste of SD rats (10 mg/kg intraperitoneal, result in words) is given as “increased significantly”. Further, the “frequency and severity of cough in patients with chronic cough” value in the data set on chronic cough (clinical data) was “significantly effective in reducing the frequency and severity of cough”. Further, in the data set on chronic cough (clinical trials), the “taste disorders in treated subjects” value is “can lead to taste disorders”.
With `Cc1ccc(C2=NN(C(=O)N[C@H](C)c3ccc(C(F)(F)F)nc3)C[C@@H]2N2CCOC2=O)nc1` [Compound 23, (S)-4-(2-oxooxazolidin-3-yl)-3-(5-methylpyridin-2-yl)-N-((R)-1-(6-(trifluoromethyl)pyridin-3-yl)ethyl)-4,5-dihydro-1H-pyrazol-1-carboxamide], the IC50 against rP2X3 is 103 nM; against gpP2X3, 359 nM; at human P2X2/3, 1150 nM; on human P2X4, greater than 20000 nM; on human PAR-1 it was greater than 30000 nM; at human P2X3 [1], 38 nM.
Turning to `Cc1ccc(C2=NN(C(=O)N[C@H](C)c3ccc(C(F)(F)F)nc3)C[C@@H]2N2CCCC2=O)cc1` [Compound 21], the IC50 at human P2X4 was greater than 20000 nM; at human PAR-1 it was greater than 30000 nM; on human P2X3 [1], 129 nM.
On to `Cc1ccc(C2=NN(C(=O)N[C@H](C)c3ccc(C(F)(F)F)nc3)C[C@H]2N2CCOC2=O)cc1` [Compound 22a, (R)-4-(2-oxooxazolidin-3-yl)-3-(4-methylphenyl)-N-((R)-1-(6-(trifluoromethyl)pyridin-3-yl)ethyl)-4,5-dihydro-1H-pyrazol-1-carboxamide], for which the IC50 against rP2X3 was 57 nM; against gpP2X3, 578 nM; on human P2X4, greater than 20000 nM; on human P2X3 [1], 38 nM.
As for “(S)-4-(3-oxomorpholin-4-yl)-3-(4-methylphenyl])-N- ((R)-1-(3-methyl-1,2,4-oxadiazol-5-yl)ethyl)-4,5-d ihydro-1H-pyrazol-1-carboxamide [Compound 46]”, on human P2X3 [2], the IC50 was found to be 151 nM.
Regarding `Cc1ccc(C2=NN(C(=O)N[C@H](C)c3ccc(C(F)(F)F)nc3)C[C@@H]2N2CCN(C)CC2=O)cc1` [Compound 17, (S)-4-(4-methyl-2-oxopiperazin-1-yl)-3-(4-methylphenyl)-N-((R)-1-(6-(trifluoromethyl)pyridin-3-yl)ethyl)-4,5-dihydro-1H-pyrazol-1-carboxamide], the IC50 on rP2X3 is 140 nM; against gpP2X3, 387 nM; at human PAR-1, greater than 30000 nM.
Turning to `Cc1ccc(C2=NN(C(=O)N[C@H](C)c3cnc(C(F)(F)F)nc3)C[C@H]2N2CCCC2=O)cc1` [Compound 32a, (R)-4-(2-oxopyrrolidin-1-yl)-3-(4-methylphenyl)-N-((R)-1-(2-(trifluoromethyl)pyrimidin-5-yl)ethyl)-4,5-dihydro-1H-pyrazol-1-carboxamide], the IC50 at human P2X4 was greater than 20000 nM; on human P2X3 [1], 82 nM.

These data come from US12668589B2, “N-formamidopyrazoline derivative as P2X3 receptor antagonist and use thereof” (HANGZHOU WESTAN PHARMACEUTICAL TECHNOLOGY CO., LTD, priority 2020, dated 2026).
